Measurements reported in patent publication US20030032662A1, “Micronized leflunomide” (priority 2000, published 2003).

Assay: Particle size after micronizing in a micronizer
Type: physicochemical
Conditions: pure dry leflunomide micronized in a micronizer (Example 1)
Description: Pure dry leflunomide was micronized in a micronizer. The result was micronized leflunomide of a particle size of less than 5 micrometer.

particle size: less than 5 micrometer
SMILES: Cc1oncc1C(=O)Nc1ccc(C(F)(F)F)cc1 [micronized leflunomide, N-(4′-trifluoromethylphenyl)-5-methylisoxazole-4-carboxamide]
